How the values were obtained:
Format in all cases: biochemical
CLK2 = CLK2 (Homo sapiens (Human), UniProt P49760); test: Inhibition of CLK2 kinase activity evaluated at Nanosyn (ADP-Glo); settings: ADP-Glo luminescence
Protocol: (§1) Inhibition of CLK, CLK2, CLK3 and CLK4 Kinase Activity Evaluated at Nanosyn
(§2) Kinase protein and substrate were pre-diluted in the HEPES assay buffer (100 mM HEPES, pH 7.5, 0.01% Triton X-100, 0.1% BSA, 5 mM MgCl2, […] DTT, 10 Sodium Orthovanadate, […] Beta-Glycerophosphate) dispensed into 384 well plate (5 μL per well). Control samples (0%-inhibition in the absence of inhibitor, DMSO only) and 100%-inhibition (in the absence of enzyme) were assembled in replicates of six and were used to calculate %-inhibition in the presence of compounds. Test compounds were added to the protein samples by acoustic dispensing (Labcyte Echo550). Concentration of DMSO was equalized to 1% in all samples. Reactions were initiated by addition of ATP by acoustic dispensing (Labcyte Echo550) and incubated according to assay specific incubation time. After incubation. 5 μL of Promega ADP-Glo reagent was added and incubated for 40 minutes. After 40 minutes, 10 uL of Promega kinase detection reagent was added. After 10 min of incubation with Kinase detection reagent, the luminescence was read on microplate reader (Biotek Synergy).

CLK1 = CLK1 (Homo sapiens (Human), UniProt P49759); test: Inhibition of CLK1 kinase activity evaluated at Nanosyn (ADP-Glo); settings: ADP-Glo luminescence
Protocol: as §1, §2

EGFR L858R/T790M mutant = EGFR L858R/T790M mutant (Homo sapiens (Human), UniProt P00533, L858R/T790M); test: HotSpot radiometric kinase assay, EGFR L858R/T790M mutant; settings: 10 μM ATP
Procedure, shortened: (§3)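 Enzyme and substrate pairs were exposed to inhibitor for roughly 20 min before radiolabelled ATP (10 μM final) was introduced; the reaction proceeded 120 min at ambient temperature in pH 7.5 buffer with 1% DMSO, and phosphorylated product was captured on P81 filters for IC50 determination.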

[1] = target: EGFR L858R/T790M/C797S mutant (Homo sapiens (Human), UniProt P00533, C797S/L858R/T790M); test: HotSpot radiometric kinase assay, EGFR L858R/T790M/C797S mutant; settings: 10 μM ATP
Procedure, shortened: as §3

CLK3 = CLK3 (Homo sapiens (Human), UniProt P49761); test: Inhibition of CLK3 kinase activity evaluated at Nanosyn (ADP-Glo); settings: ADP-Glo luminescence
Protocol: as §1, §2

EGFR L858R mutant = EGFR L858R mutant (Homo sapiens (Human), UniProt P00533, L858R); test: HotSpot radiometric kinase assay, EGFR L858R mutant; settings: 10 μM ATP
Procedure, shortened: as §3

EGFR (D770_N771insNPG) = EGFR (D770_N771insNPG) (Homo sapiens (Human), UniProt P00533, INS770NPG); test: HotSpot radiometric kinase assay, EGFR (D770_N771insNPG); settings: 10 μM ATP, read-out: EGFR (Δ770_N771insNPG) IC50
Procedure, shortened: as §3

[2] = target: EGFR Δ746-750/C797S mutant (Homo sapiens (Human), UniProt P00533, C797S/DEL746-750); test: HotSpot radiometric kinase assay, EGFR Δ746-750/C797S mutant; settings: 10 μM ATP
Procedure, shortened: as §3

EGFR WT = EGFR WT (Homo sapiens (Human), UniProt P00533); test: HotSpot radiometric kinase assay (Reaction Biology), EGFR WT; settings: 10 μM ATP
Procedure, shortened: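 Kinase, substrate and cofactors are mixed in 20 mM Hepes pH 7.5 with 10 mM MgCl2, 1 mM EGTA, 2 mM DTT and 1% DMSO. Compound is added, and about 20 min later ATP/33P-ATP (10 μM final) starts a 120-min room-temperature reaction, which is then spotted onto P81 paper.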

EGFR Δ746-750 mutant = EGFR Δ746-750 mutant (Homo sapiens (Human), UniProt P00533, DEL746-750); test: HotSpot radiometric kinase assay, EGFR Δ746-750 mutant; settings: 10 μM ATP
Procedure, shortened: as §3

CLK4 = CLK4 (Homo sapiens (Human), UniProt Q9HAZ1); test: Inhibition of CLK4 kinase activity evaluated at Nanosyn (ADP-Glo); settings: ADP-Glo luminescence
Protocol: as §1, §2

Sequence of CLK4 (Q9HAZ1 whole entry): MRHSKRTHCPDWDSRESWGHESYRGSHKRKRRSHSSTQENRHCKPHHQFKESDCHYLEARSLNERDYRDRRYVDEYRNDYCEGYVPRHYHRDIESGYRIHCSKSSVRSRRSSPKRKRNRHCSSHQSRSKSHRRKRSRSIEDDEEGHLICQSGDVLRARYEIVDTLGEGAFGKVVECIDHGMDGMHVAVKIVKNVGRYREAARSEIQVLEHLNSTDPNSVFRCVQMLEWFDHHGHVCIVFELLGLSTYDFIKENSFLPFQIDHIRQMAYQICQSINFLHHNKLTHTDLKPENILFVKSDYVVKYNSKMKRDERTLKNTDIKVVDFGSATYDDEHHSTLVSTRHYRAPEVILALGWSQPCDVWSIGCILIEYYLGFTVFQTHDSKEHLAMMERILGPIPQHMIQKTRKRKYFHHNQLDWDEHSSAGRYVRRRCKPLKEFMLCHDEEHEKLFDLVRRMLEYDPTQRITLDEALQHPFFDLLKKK
Sequence of EGFR L858R mutant (P00533 25-1210 L858R): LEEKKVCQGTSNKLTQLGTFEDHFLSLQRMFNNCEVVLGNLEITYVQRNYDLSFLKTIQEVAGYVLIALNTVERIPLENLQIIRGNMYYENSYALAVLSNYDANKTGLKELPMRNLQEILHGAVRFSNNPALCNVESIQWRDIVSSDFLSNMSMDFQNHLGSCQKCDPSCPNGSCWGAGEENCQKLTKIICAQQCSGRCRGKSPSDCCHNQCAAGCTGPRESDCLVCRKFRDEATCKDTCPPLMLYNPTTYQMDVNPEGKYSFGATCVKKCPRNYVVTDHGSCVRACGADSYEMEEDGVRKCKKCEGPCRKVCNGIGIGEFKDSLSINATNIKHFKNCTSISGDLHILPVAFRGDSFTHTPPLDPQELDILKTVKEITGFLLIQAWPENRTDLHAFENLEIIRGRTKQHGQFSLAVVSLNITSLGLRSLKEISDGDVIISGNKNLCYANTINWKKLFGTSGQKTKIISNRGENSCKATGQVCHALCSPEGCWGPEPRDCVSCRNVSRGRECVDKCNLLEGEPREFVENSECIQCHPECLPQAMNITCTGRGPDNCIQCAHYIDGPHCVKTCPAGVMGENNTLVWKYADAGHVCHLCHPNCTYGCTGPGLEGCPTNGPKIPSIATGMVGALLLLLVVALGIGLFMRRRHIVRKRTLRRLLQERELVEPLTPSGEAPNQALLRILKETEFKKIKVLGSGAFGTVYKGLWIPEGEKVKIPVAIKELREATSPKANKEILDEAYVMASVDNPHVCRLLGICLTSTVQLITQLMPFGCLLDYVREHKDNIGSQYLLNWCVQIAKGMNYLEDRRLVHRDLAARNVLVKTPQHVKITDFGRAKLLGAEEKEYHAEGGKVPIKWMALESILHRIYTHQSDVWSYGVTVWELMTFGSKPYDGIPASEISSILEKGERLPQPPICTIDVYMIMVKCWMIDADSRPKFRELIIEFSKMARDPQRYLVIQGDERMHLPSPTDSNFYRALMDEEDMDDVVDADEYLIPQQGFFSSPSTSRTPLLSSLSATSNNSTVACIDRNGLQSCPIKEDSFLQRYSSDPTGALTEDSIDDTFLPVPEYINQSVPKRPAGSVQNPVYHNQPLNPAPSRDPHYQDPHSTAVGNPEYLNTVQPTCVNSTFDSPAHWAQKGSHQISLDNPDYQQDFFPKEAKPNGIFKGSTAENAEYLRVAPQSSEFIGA
Sequence of EGFR WT (P00533 25-1210): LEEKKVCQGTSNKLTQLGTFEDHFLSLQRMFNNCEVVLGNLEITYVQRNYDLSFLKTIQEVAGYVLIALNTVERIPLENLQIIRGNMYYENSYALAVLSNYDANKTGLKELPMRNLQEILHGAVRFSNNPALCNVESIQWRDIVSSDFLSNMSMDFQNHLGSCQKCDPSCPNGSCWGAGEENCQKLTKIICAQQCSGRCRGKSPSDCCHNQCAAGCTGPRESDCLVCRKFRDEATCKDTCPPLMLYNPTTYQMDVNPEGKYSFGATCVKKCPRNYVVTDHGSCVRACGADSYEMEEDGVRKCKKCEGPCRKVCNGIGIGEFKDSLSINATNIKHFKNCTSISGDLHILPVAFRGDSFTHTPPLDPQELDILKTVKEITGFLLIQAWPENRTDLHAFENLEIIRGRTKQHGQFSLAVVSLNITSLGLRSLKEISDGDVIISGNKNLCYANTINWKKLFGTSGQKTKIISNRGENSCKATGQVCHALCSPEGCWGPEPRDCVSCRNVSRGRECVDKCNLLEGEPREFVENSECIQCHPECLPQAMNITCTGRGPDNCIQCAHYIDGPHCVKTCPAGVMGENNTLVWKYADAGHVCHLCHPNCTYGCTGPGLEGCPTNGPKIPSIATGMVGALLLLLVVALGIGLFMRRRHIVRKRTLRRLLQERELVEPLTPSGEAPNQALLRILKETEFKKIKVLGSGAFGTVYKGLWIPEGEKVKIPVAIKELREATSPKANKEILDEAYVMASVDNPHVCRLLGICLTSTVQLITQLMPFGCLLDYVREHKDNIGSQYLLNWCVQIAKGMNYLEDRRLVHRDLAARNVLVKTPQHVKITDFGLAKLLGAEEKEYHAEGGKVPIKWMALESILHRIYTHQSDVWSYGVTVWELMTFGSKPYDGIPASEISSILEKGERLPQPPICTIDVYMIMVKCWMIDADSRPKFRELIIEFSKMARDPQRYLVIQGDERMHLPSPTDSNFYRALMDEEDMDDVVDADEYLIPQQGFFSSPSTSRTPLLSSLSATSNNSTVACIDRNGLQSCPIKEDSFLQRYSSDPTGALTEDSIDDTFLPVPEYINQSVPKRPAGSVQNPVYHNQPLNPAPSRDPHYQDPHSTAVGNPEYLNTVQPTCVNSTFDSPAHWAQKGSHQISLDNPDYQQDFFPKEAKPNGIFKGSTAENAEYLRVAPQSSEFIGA
Sequence of CLK3 (P49761 whole entry): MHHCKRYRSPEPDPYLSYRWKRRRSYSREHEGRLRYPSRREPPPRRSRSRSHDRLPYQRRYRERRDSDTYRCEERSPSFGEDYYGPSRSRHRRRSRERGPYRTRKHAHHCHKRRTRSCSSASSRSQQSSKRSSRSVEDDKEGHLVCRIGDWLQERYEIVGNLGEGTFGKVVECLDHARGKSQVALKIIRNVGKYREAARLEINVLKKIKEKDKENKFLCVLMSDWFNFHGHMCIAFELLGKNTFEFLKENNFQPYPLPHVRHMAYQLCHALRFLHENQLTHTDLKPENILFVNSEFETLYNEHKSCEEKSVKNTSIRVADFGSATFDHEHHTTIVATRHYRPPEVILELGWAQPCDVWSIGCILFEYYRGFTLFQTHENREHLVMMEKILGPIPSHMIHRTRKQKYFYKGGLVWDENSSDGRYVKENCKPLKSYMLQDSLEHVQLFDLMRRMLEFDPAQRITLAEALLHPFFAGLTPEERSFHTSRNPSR
Sequence of CLK2 (P49760 whole entry): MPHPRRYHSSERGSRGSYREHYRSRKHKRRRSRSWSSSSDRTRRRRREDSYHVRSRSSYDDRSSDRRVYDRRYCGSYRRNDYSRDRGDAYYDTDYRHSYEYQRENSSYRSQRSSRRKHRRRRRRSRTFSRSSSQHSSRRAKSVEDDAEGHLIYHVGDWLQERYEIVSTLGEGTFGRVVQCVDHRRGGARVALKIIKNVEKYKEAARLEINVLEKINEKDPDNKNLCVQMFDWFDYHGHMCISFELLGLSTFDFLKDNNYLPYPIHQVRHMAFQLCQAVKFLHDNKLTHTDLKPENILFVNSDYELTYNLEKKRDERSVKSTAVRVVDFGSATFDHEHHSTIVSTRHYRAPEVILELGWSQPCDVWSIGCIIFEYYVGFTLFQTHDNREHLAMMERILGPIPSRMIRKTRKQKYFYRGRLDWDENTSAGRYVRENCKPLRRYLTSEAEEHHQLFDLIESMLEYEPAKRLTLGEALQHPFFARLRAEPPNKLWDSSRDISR
Sequence of EGFR (D770_N771insNPG) (P00533 other isoform, or with tags, fused parts or gaps del 1-668/ins NPG behind 770 limits assumed): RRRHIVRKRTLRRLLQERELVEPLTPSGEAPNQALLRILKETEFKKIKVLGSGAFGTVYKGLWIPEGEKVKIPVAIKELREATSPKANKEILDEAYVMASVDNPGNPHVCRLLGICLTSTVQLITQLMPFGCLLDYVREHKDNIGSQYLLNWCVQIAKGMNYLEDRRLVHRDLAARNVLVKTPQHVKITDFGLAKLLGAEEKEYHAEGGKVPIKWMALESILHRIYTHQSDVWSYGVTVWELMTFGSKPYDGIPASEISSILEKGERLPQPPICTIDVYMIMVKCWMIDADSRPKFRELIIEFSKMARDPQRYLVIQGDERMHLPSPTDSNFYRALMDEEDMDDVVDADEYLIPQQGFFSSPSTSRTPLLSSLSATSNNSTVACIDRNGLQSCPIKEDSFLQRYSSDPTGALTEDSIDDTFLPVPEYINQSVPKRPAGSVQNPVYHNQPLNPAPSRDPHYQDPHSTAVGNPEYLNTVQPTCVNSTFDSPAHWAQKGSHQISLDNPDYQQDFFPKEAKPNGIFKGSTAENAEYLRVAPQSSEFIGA
Sequence of EGFR Δ746-750/C797S mutant (P00533 other isoform, or with tags, fused parts or gaps C797S/del 1-668/del 746-750 limits assumed): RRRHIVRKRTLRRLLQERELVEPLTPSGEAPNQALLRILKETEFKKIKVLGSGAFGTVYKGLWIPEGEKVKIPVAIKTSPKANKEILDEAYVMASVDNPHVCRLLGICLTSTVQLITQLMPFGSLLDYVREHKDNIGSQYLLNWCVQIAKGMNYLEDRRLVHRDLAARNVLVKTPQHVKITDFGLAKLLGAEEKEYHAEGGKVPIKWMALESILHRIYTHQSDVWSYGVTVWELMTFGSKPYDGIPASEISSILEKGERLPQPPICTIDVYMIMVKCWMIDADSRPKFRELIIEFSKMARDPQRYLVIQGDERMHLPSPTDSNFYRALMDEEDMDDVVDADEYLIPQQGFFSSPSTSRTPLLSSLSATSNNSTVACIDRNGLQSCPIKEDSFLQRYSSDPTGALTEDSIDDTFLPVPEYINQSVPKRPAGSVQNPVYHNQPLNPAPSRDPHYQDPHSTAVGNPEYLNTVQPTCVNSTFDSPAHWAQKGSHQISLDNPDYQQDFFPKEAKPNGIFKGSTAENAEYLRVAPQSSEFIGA

| IC50 (CLK2) | IC50 (CLK1) | IC50 (EGFR L858R/T790M mutant) | IC50 [1] | IC50 (CLK3) | IC50 (EGFR L858R mutant) | IC50 (EGFR (D770_N771insNPG)) | IC50 [2] | IC50 (EGFR WT) | IC50 (EGFR Δ746-750 mutant) | IC50 (CLK4) | Structure (SMILES) |
| --- | --- | --- | --- | --- | --- | --- | --- | --- | --- | --- | --- |
| 0.15 nM | 0.27 nM | 1.46 nM | 2.09 nM | 21.2 nM | 11.9 nM | 58 nM | 6.79 nM | 94.2 nM | 7.45 nM | 0.6 nM | Cc1nn(C)c2c1/C=C/c1n[nH]c3ccc(cc13)-c1cnn(C)c1O[C@@H]1CCCN(C2)C1 [Example 122, (10R,19E)-8,16,18-trimethyl-2,8,10,11,12,13,15,16-octahydro-3,5-etheno-10,14-methanotripyrazolo[3,4-h:3′,4′-l:4″,3″-p][1,6]oxazacycloheptadecine] |
| 2.38 nM | 1.08 nM | 4.35 nM | 19.3 nM | 61.8 nM | 8.73 nM | 232 nM | 5.25 nM | 22.2 nM | 6.9 nM | 1.56 nM | CCOc1nn(C)c2c1/C=C/c1n[nH]c3cc(F)c(cc13)-c1cnn(C)c1OC1CCCN(C2)C1 (stereo in doubt) [Example 178] |
| 0.14 nM | 0.27 nM | 3.1 nM | 1.4 nM | 164 nM | 47.1 nM | 191 nM | 13.5 nM | 171 nM | 20 nM | 0.57 nM | Cc1nn(C)c2c1/C=C/c1n[nH]c3ccc(cc13)-c1cnn(C)c1O[C@@H](C)CN(C1CC1)C2 [Example 161, (10S,17E)-12-cyclopropyl-8,10,14,16-tetramethyl-2,10,11,12,13,14-hexahydro-8H-3,5-ethenotripyrazolo[3,4-f:3′,4′-j:4″,3″-n][1,4]oxazacyclopentadecine] |
| 0.13 nM | 0.09 nM | – | 4.1 nM | 185 nM | 35.2 nM | 78.3 nM | 8.93 nM | 101 nM | 33.4 nM | 0.58 nM | Cc1nn(C)c2c1/C=C/c1n[nH]c3ccc(cc13)-c1cnn(C)c1CN(C)CCO2 [Example 55, (17E)-8,10,14,16-tetramethyl-2,9,10,11,12,14-hexahydro-8H-3,5-ethenotripyrazolo[3,4-f:4′,3′-j:4″,3″- n][1,4]oxazacyclopentadecine] |

The next lines start with the compound.

| Structure (SMILES) | IC50 (CLK2) | IC50 (CLK1) | IC50 (EGFR L858R/T790M mutant) | IC50 [1] | IC50 (CLK3) | IC50 (EGFR L858R mutant) | IC50 (EGFR (D770_N771insNPG)) | IC50 [2] | IC50 (EGFR WT) | IC50 (EGFR Δ746-750 mutant) | IC50 (CLK4) |
| --- | --- | --- | --- | --- | --- | --- | --- | --- | --- | --- | --- |
| CCOc1nn(CCO)c2c1/C=C/c1n[nH]c3ccc(cc13)-c1cnn(C)c1O[C@H](C)CNC2 [Example 197, 2-[(10R,17E)-16-ethoxy-8,10-dimethyl-2,8,10,11,12,13-hexahydro-14H-3,5-ethenotripyrazolo[3,4-f:3′,4′-j:4″,3″- n][1,4]oxazacyclopentadecin-14-yl]ethan-1-ol] | 3.06 nM | 1.16 nM | 4.58 nM | 2.18 nM | 78.6 nM | 95.2 nM | 217 nM | 29.8 nM | 194 nM | 62 nM | 1.59 nM |
| CC(C)Oc1nn(CCO)c2c1/C=C/c1n[nH]c3ccc(cc13)-c1cnn(C)c1O[C@@H](C#N)CN(C)C2 [Example 264, (10R,17E)-14-(2-hydroxyethyl)-8,12-dimethyl-16-[(propan-2-yl)oxy]-2,10,11,12,13,14-hexahydro-8H-3,5-ethenotripyrazolo[3,4-f:3′,4′-j:4″,3″-n][1,4]oxazacyclopentadecine-10-carbonitrile] | 3.08 nM | 1.06 nM | 18 nM | 8.63 nM | 519 nM | 491 nM | 826 nM | 70 nM | 815 nM | 162 nM | 1.59 nM |
| CC(C)Oc1nn(CCO)c2c1/C=C/c1n[nH]c3ccc(cc13)-c1cnn(C)c1O[C@@H](C)C(=O)N(C)C2 [Example 220, (10S,17E)-14-(2-hydroxyethyl)-8,10,12-trimethyl-16-[(propan-2-yl)oxy]-2,12,13,14-tetrahydro-8H-3,5-ethenotripyrazolo[3,4-f:3′,4′-j:4″,3″- n][1,4]oxazacyclopentadecin-11(10H)-one] | 8.84 nM | 2.76 nM | 23.1 nM | 27.5 nM | 1 nM | 515 nM | 575 nM | 475 nM | 1440 nM | 398 nM | 4.31 nM |
| COCc1nn(CCO)c2c1/C=C/c1n[nH]c3ccc(cc13)-c1cnn(C)c1O[C@@H](C)CN(C)C2 [Example 261, 2-[(10S,17E)-16-(methoxymethyl)-8,10,12-trimethyl-2,8,10,11,12,13-hexahydro-14H-3,5-ethenotripyrazolo[3,4-f:3′,4′-j:4″,3″-n][1,4]oxazacyclopentadecin-14-yl]ethan-1-ol] | 0.33 nM | 0.2 nM | 1.92 nM | 5.1 nM | 209 nM | 21.6 nM | 230 nM | 5.93 nM | 93.7 nM | 23.5 nM | 0.44 nM |
| Cc1c2c(nn1C)/C=C/c1n[nH]c3ccc(cc13)-c1cnn(C)c1O[C@@H](C)CN(C)C2 [Example 126, (10S,17E)-8,10,12,14,15-pentamethyl-2,10,11,12,13,15-hexahydro-8H-3,5-ethenotripyrazolo[4,3-f:3′,4′-j:4″,3″-n][1,4]oxazacyclopentadecine] | 0.12 nM | 0.32 nM | 2.07 nM | 2.8 nM | 188 nM | 18.6 nM | 133 nM | 19.8 nM | 164 nM | 16.1 nM | 0.49 nM |
| CC(C)Oc1nn(CCO)c2c1/C=C/c1n[nH]c3ccc(cc13)-c1cnn(C)c1OC(CF)CN(C)C2 (centres unmarked) [Example 225, 2-{(17E)-10-(fluoromethyl)-8,12-dimethyl-16-[(propan-2-yl)oxy]-2,8,10,11,12,13-hexahydro-14H-3,5-ethenotripyrazolo[3,4-f:3′,4′-j:4″,3″-n][1,4]oxazacyclopentadecin-14-yl}ethan-1-ol] | 0.49 nM | 1.11 nM | 0.57 nM | 0.21 nM | 77.7 nM | 12.2 nM | 65.4 nM | 1.44 nM | 51.8 nM | 5.39 nM | 1.92 nM |
| Cc1c2c(nn1C)OCCOCc1c(cnn1C)-c1ccc3[nH]nc(c3c1)/C=C/2 [Ex. 7, (17E)-8,15,16-trimethyl-2,8,9,11,12,15-hexahydro-3,5-etheno[1,4]dioxacyclopentadecino[11,10-c:15,14-c′:6,7-c″]tripyrazole] | 0.08 nM | 0.2 nM | – | 202 nM | 45.2 nM | 687 nM | 2120 nM | – | > 1000 nM | 898 nM | 0.48 nM |
| CC(=O)N1CCOc2c(cnn2C)-c2ccc3[nH]nc(c3c2)/C=C/c2c(nn(C)c2C)C1 [Example 52, 1-[(17E)-8,15,16-trimethyl-2,8,10,11,13,15-hexahydro-12H-3,5-ethenotripyrazolo[3,4-f:3′,4′-j:4″,3″- n][1,4]oxazacyclopentadecin-12-yl]ethan-1-one] | 0.19 nM | 0.24 nM | – | – | 148 nM | – | – | – | – | – | 0.56 nM |

— patent US20250353864A1, “INDAZOLE CONTAINING MACROCYCLES AND THEIR USE” (BLOSSOMHILL THERAPEUTICS, INC., priority 2022, published 2025)
